{"source": "patent US20230024584A1", "about": "“ANTI-CANCER COMPOSITIONS AND METHODS” (University of Kentucky Research Foundation, priority 2019, published 2023)", "assay_type_in_all_cases": "cell-based", "key": {"[1]": {"test_system": "MCF-7, LM2 and 4T1luc cells", "experiment": "Apoptosis (7-AAD/APC-annexin V flow cytometry), breast cancer cells", "conditions": "1.25, 2.5 or 5 μM, 48 h", "procedure": "With reference to FIGS. 26A-26C, studies were also conducted to determine the effect of lomitapide treatment on apoptosis of breast cancer cells. Initially, 0.1-0.3 million MCF-7, LM2 or 4T1^luc cells were seeded into 6 cm cell culture dishes and cultured overnight. Vehicle control (DMSO) or lomitapide (final concentration: 1.25, 2.5 or 5 μM) was added then into corresponding dishes. After 48 h incubation, the cells were harvested, stained by 7-AAD/APC-annixin V and analyzed by flow cytometry. The results are presented as mean±standard deviation (n=3). * p<0.05, compared to vehicle control (negative control) treatment group."}, "[2]": {"test_system": "SUM159, LM2, MCF-7, 4T1, 4T1luc and MDA-MB-453 cells", "experiment": "Clonogenic assay, breast cancer cell lines", "conditions": "1.25, 2.5 or 5 μM for 72 h, then 10 days culture", "procedure": "Clonogenic assays were also performed to determine the effect of lomitapide treatment on various breast cancer cell lines, with data reflected in FIGS. 22A-22G. Initially, 100 SUM159, LM2, MCF-7, 4T1 or 4T1^luc cells, or 1000 MDA-MB-453 cells were seeded into 6-cm cell culture dishes. After overnight culture, vehicle control (DMSO) or lomitapide (final concentration: 1.25, 2.5 or 5 μM) were added into the corresponding dishes. After 72 h culture, the DMSO- or lomitapide-containing media were removed and the fresh culture media were added in followed by additional 10 days culture. The culture media were replaced with fresh media every three days. At the end of cell culture, the final clones in dishes were fixed by 4% paraformaldehyde and stained with crystal violet. FIG. 22A includes representative images from each treatment groups, and FIGS. 22B-22G include the quantitation of clone numbers (mean standard deviation, n=3). * p<0.05, compared to vehicle control (negative control) treatment group."}, "[3]": {"test_system": "SUM159, MCF-7 and MDA-MB-453 cells", "experiment": "Soft agar colony formation assay, breast cancer cell lines", "conditions": "1.25, 2.5 or 5 μM, 1 month culture", "procedure": "With reference to FIGS. 23A-23D, soft agar colony formation assays were also performed. Initially, 1000 SUM159 or MCF-7 cells, 10000 MDA-MB-453 cells were seeded into the upper agar of each dish; meanwhile, vehicle control (DMSO) or lomitapide (final concentration: 1.25, 2.5 or 5 μM) were added into the upper agar of corresponding dishes. After 1 month continuous culture, the final colonies formed in the agar were fixed by methanol and stained with crystal violet. FIG. 23A includes representative soft agar images from each treatment groups. FIGS. 23B-23D include the quantitation of soft agar clone numbers (mean standard deviation, n=3). * p<0.05, compared to vehicle control (negative control) treatment group."}, "[4]": {"test_system": "PC9, H1975, PC9GR4, H460 and A549 cells", "experiment": "MTT assay, lung cancer cell lines", "conditions": "1.25, 2.5 and 5 μM; 24, 48, 72 h", "procedure": "FIGS. 27A-27E include the results of studies to determine the effect of lomitapide treatment on lung cancer cell growth of various cell lines as determined by MTT assay. Initially, 1000 PC9, H1975, PC9GR4, H460, or A549 cells were seeded into 96-well plates. After overnight culture, vehicle (DMSO) or lomitapide (final concentration: 1.25, 2.5 and 5 μM) were added into the corresponding wells. After 24 h, 48 h and 72 h incubation, the culture media were aspirated off and 50 μL of 0.5 mg/mL of MTT containing medium was added into each well. After 3h incubation, 200 μl of DMSO were added into each well. The OD value of each well was read under the wavelength of 570 nm. The results are presented as mean±standard deviation (n=6) * p<0.05, compared to vehicle control (negative control) treatment group."}, "[5]": {"test_system": "HCT116, HT29, DLD1, PT130 and SW480 cells", "experiment": "MTT assay, colon cancer cell lines", "conditions": "1.25, 2.5 and 5 μM; 24, 48, 72 h", "procedure": "With reference to FIGS. 31A-31F, studies were conducted to determine the effect of lomitapide treatment on colon cancer cell growth as determined by the MTT assay. Initially, 1000 HCT116, HT29, DLD1, PT130, or SW480 cells were seeded into 96-well plates. After overnight culture, vehicle (DMSO) or lomitapide (final concentration: 1.25, 2.5 and 5 μM) were added into the corresponding wells. After 24 h, 48 h and 72 h incubation, the culture media were aspirated off and 50 μL of 0.5 mg/mL of MTT containing medium was added into each well. After 3h incubation, 200 μL of DMSO were added into each well. The OD value of each well was read under the wavelength of 570 nm. The results are presented as mean±standard deviation (n=6) * p<0.05, compared to vehicle control (negative control) treatment group."}, "[6]": {"test_system": "SUM159, LM2, MCF-7, MB-MDA-453, 4T1 and 4T1luc cells", "experiment": "MTT assay, breast cancer cell lines", "conditions": "1.25, 2.5 and 5 μM; 24, 48, 72 h", "procedure": "With reference to FIGS. 21A-21F, MTT assays were performed to determine the effect of lomitapide treatment on various breast cancer cell lines. Initially, 2500 SUM159 or LM2 cells, 5000 MCF-7 or MB-MDA-453 cells, 1000 4T1 or 4T1^1uc cells were seeded into 96-well plates. After overnight culture, vehicle (DMSO) or lomitapide (final concentration: 1.25, 2.5 and 5 μM) were added into the corresponding wells. After 24 h, 48 h, and 72 h incubation, the culture media were aspirated off and 50 μl of 0.5 mg/mL of MTT containing medium was added into each well. After 3 h incubation, 200 μl of DMSO were added into each well. The OD value of each well was read under the wavelength of 570 nm. The results are presented as mean±standard deviation (n=6) * p<0.05, compared to vehicle control (negative control) treatment group."}, "[7]": {"test_system": "DLD1, PT130 and SW480 cells", "experiment": "Clonogenic assay, colon cancer cell lines", "conditions": "1.25, 2.5 or 5 μM for 72 h, then 10 days culture", "procedure": "Initially, 100 DLD1, PT130 or SW480 cells were seeded into 6-cm cell culture dishes. After overnight culture, vehicle control (DMSO) or lomitapide (final concentration: 1.25, 2.5 or 5 μM) were added into the corresponding dishes. After 72 h culture, the DMSO- or lomitapide-containing media were removed and the fresh culture media were added in followed by additional 10 days culture. The culture media were replaced with fresh media every three days. At the end of cell culture, the final clones in dishes were fixed by 4% paraformaldehyde and stained with crystal violet. FIG. 32A includes representative images from each treatment groups. FIGS. 32B-32D include quantitation of clone numbers (mean±standard deviation, n=3). * p<0.05, compared to vehicle control (negative control) treatment group."}}, "data": [{"substance": "lomitapide", "values": [{"measurement": "apoptosis", "setting": "[1]", "result": "induces apoptosis"}, {"measurement": "breast cancer cell growth (clone numbers)", "setting": "[2]", "result": "significantly reduces breast cancer cell growth"}, {"measurement": "breast cancer cell growth (soft agar clone numbers)", "setting": "[3]", "result": "significantly reduces breast cancer cell growth"}, {"measurement": "lung cancer cell growth (MTT)", "setting": "[4]", "result": "significantly reduces lung cancer cell growth"}, {"measurement": "colon cancer cell growth (MTT)", "setting": "[5]", "result": "significantly reduces colon cancer cell growth"}, {"measurement": "breast cancer cell growth (MTT)", "setting": "[6]", "result": "significantly reduces breast cancer cell growth"}, {"measurement": "colon cancer cell growth (clone numbers)", "setting": "[7]", "result": "significantly reduces colon cancer cell growth"}]}]}
